A short description of data set [1]: Brain penetration (brain homogenate AUCt, Kp,brain, Kp,uu,brain). The following applies: for Kp uu / Kp: C57BL/6N, mouse, brain, 0.5 mg/kg; for Kp uu: Kp,uu,brain; for Kp: Kp,brain; for AUCt brain homogenate: 4 mg/kg PO OL, t = 24 hours, mean (95% CI); for animals with brain homogenate concentration below the detection limit of 0.20 ng/g: PO olanzapine. How it is done: (§1) After a 1-week acclimation period, the mice were randomly assigned to 2 experimental groups of 36 animals each: (1) an LPS group was given a single 4 mg/kg intraperitoneal (IP) injection of lipopolysaccharide (LPS), serotype O55:B05 (Sigma) and (2) a control group received a vehicle (sterile phosphate-buffered saline). […] The volume load for mice weighing 25 g was 125 µL. […] The doses of DMSO and MC were 276 and 25 mg/kg. […] Sampling was performed at 2 intervals in each of the 18 mice injected with LPS and 18 controls. The first blood volume of 150 µL was taken into an EDTA-microvette CB 300 (Sardstedt) from a drop of blood after a small incision at the end of the tail. At the termination interval, the second blood sample was collected by cardiac puncture in terminal anesthesia, and then the animal was put to death by decapitation. […] The injected volume was 1 mL/kg, that is, 25 µL for a 25 g mouse. […] The injected volume was 2.5 mL/kg, that is, […]. After IV administrations, blood was sampled at 3, 5, 10, 20, and 40 minutes, and 1, 1.5, 2, 3, 4, and 6 hours. Blood samples were taken at 3 intervals in each mouse. The first 2 samples of 75 µL each were taken from the retroorbital plexus under brief anesthesia and the third terminal sample was described for oral dosing. Plasma samples were obtained from whole blood by centrifugation at 2000 × g for 5 minutes at 4°C. Whole brain, liver, and intestine were excised and immediately frozen in liquid nitrogen. All samples were stored at −80°C until analysis.
(§2) Details of the analysis can be found in the Supplementary Materials.
The calculation of the point estimate and the 95% bootstrap t-confidence interval for AUCt was performed with the help of the R-package PK (https://cran.r-project.org/web/packages/PK/index.html). Total brain-to-plasma drug partition coefficient (Kp,brain) and unbound brain-to-unbound plasma partition coefficient (Kp,uu, brain) were calculated using Equations 3 and 4:
Kp,brain=AUCt,brain/AUCt,plasma
Kp, uu,brain=fu,brain × AUCt,brain/fu, plasma × AUCt,plasma

For data set [2] the following is noted: protonated form; no reference given; cited from earlier work.
For data set [3] the following is noted: C57BL/6N, mouse, in vivo.
Experimental: (§3) The individual values of the pharmacokinetic parameters were obtained as empirical Bayes estimates.
(§4) In the second step, the concentration-time data after the intravenous administration of DMO were modelled to assess distribution and elimination of the metabolite. […] The PK parameters of DMO were fixed to the values estimated after a single IV dose of the metabolite. […] The goodness-of-fit achieved by the pharmacokinetic models was assessed with the help of the objective function value and diagnostic plots of 1/observed and predicted concentrations vs. time, 2/ observed vs. individually predicted concentrations, 3/ weighted residuals vs. time and 4/ weighted residuals vs. predicted concentrations. Finally, the mean prediction errors and the mean absolute prediction errors were calculated.
(§5) The between-animal variability in model parameters were described by an exponential model and a proportional model was used to describe the residual variability.
A short description of data set [4]: Rapid equilibrium dialysis, protein binding in plasma. It is filed as in vitro ADME. The following applies: C57BL/6N, mouse, plasma (pooled samples from the study mice), mean (range). How it is done:
Plasma samples collected from individual mice at each time point were pooled into composite samples due to insufficient sample volumes for performing RED. Similarly, brain homogenate samples from individual time points were pooled. RED was performed according to the manufacturer’s protocol (for details, see the Supplementary Materials). The free drug fraction in plasma was calculated by using Equation 1:
Rapid Equilibrium Dialysis. Briefly, 50 µL of drug-spiked plasma or 100 µL of 10-fold diluted brain homogenates were added to the sample chambers of the RED device, while 300 µL or 350 µL of phosphate-buffered saline (PBS, pH at 7.4) were added to the corresponding buffer chambers. Each pooled sample was analysed in triplicate. Control samples consisting of plasma and brain homogenates from the study, spiked with clozapine and trazodone at a target concentration of 100 ng/mL, were analysed in each measurement series. Each plate was sealed with aluminium foil and incubated at 37 ± 1 °C with an agitation at 350 rpm on an orbital shaker (Randox PHMP, Grant Instruments Ltd, Shepreth, Cambridgeshire, England) for 4 hours. After incubation, a matrix-matching procedure was performed: 10 µL of each post-dialysis sample was mixed with an equal volume of PBS, while 10 µL of each buffer sample was mixed with the corresponding blank plasma or brain homogenate. […]
For orientation: Equilibrium dialysis compares concentrations on both sides of a semipermeable membrane.

The nature of a further data set: in vivo. The settings on record: for AUC(0-t): plasma, AUCt plasma, mean (95% CI). How it is done: as §1, §2
The calculation of the point estimate and the 95% bootstrap t-confidence interval for AUCt was performed with the help of the R-package PK (https://cran.r-project.org/web/packages/PK/index.html). Total brain-to-plasma drug partition coefficient (Kp,brain) and unbound brain-to-unbound plasma partition coefficient (Kp,uu, brain) were calculated using Equations 3 and 4: […]

Data set [5] in a line: Population compartmental pharmacokinetic modelling of olanzapine and DMO.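 Also: pharmacokinetic model fitted to concentration-time data, with between-animal variability described exponentially, residual error proportional, and effect of LPS injection assessed on clearance and distribution volumes.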
Experimental: as §3, §4, §5
Data set [6] in a line: Rapid equilibrium dialysis, binding in brain homogenates. The class given is in vitro ADME, mice. The settings on record: C57BL/6N, mouse; for fraction unbound at 4 h: mean (range), pooled samples, read-out: unbound fraction in the brain homogenate; for fraction unbound at 4 h, 100 ng/mL: pH 7.4, RED control samples spiked at 100 ng/mL, range, read-out: unbound fraction in brain homogenate, control samples. How it is done: Plasma samples collected from individual mice at each time point were pooled into composite samples due to insufficient sample volumes for performing RED. Similarly, brain homogenate samples from individual time points were pooled. RED was performed according to the manufacturer’s protocol (for details, see the Supplementary Materials). The free drug fraction in plasma was calculated by using Equation 1: […]
The free drug fraction in the brain homogenate was determined by using Equation 2, which accounts for the effect of tissue dilution on the unbound fraction:
fu,brain=1/D/(1/fu,diluted−1)+1/D
were D is the dilution factor in the brain homogenate and the fu,diluted associated free fraction determined as the ratio of concentrations in the buffer versus the diluted brain tissue.
Rapid Equilibrium Dialysis. Briefly, 50 µL of drug-spiked plasma or 100 µL of 10-fold diluted brain homogenates were added to the sample chambers of the RED device, while 300 µL or 350 µL of phosphate-buffered saline (PBS, pH at 7.4) were added to the corresponding buffer chambers. Each pooled sample was analysed in triplicate. Control samples consisting of plasma and brain homogenates from the study, spiked with clozapine and trazodone at a target concentration of 100 ng/mL, were analysed in each measurement series. Each plate was sealed with aluminium foil and incubated at 37 ± 1 °C with an agitation at 350 rpm on an orbital shaker (Randox PHMP, Grant Instruments Ltd, Shepreth, Cambridgeshire, England) for 4 hours. After incubation, a matrix-matching procedure was performed: 10 µL of each post-dialysis sample was mixed with an equal volume of PBS, while 10 µL of each buffer sample was mixed with the corresponding blank plasma or brain homogenate. Prior to analysis, 20 µL of the mixed plasma or brain homogenate samples were precipitated with 80 µL of acetonitrile containing an internal standard.

The next data set has as its system mice. Further details: method as in supplement 4. The following applies: p.o., ref supplement 4; cited from earlier work.
Details of data set [7]: method as in supplement 9. The settings on record: rat; 15 % (w:v) DMSO (660 mg/kg) in 0.5 % MC p.o.; ref supplement 9; cited from earlier work.

SMILES strings stand for the structures. “And” between values parts separate entries of the source, which are not always exact repeats. Identical values can stand only once.

With `Cc1cc2c(s1)Nc1ccccc1N=C2N1CCNCC1` [DMO, 4’-N-desmethylolanzapine], the Kp uu was no more than 0.051 in data set [1] (intravenous, abstract, LPS and control mice); 0.051 in [1] (iv, Controls, 0.5 mg/kg IV DMO); 0.042 in [1] (iv, LPS mice, 0.5 mg/kg IV DMO). For the same molecule, the Kp in [1] (iv, Controls, 0.5 mg/kg IV DMO) is 0.077; in data set [1] (iv, LPS mice, 0.5 mg/kg IV DMO), 0.039. Also, the AUCt brain homogenate result in data set [1] (Controls) and in [1] (LPS mice) was “trace levels^b” each time. Also, the “brain homogenate levels after IV olanzapine” value in [1] (LPS animals and controls, IV olanzapine) is reported as “neither the LPS animals nor the controls had any brain homogenate levels of DMO higher than the limits of detection”. For the same molecule, the “animals with brain homogenate concentration below the detection limit of 0.20 ng/g” value is recorded as 4 of 18 in [1] (LPS group) and 5 of the 18 in [1] (control group). In addition, in data set [2], the pKa – broadly, the pH at which an ionisable group is half protonated – is on record as 8.8. Further, the Q in [3] is listed as 2.51 (30%) L·hour^−1.kg^-1. Besides, in [3], the V1 was 1.6 (14%) L.kg^-1. Further, in data set [3], the V2 is given as 1.49 (14%) L.kg^-1. Further, the “decrease in the plasma clearance of DMO in LPS mice” value in [3] came to 4.8 fold. Besides, the βCL_LPS in [3] is recorded as -1.54 (21%). Also, the βV1_LPS in [3] is on record as -1.2 (15%). The βV2_LPS in data set [3] was -0.56 (38%). Further, the “ωCL, percent interindividual variability” value in data set [3] is 54 (34%). In addition, the “ωQ, percent interindividual variability” value in [3] is given as 17 (90%). In [3], the “ωV1, percent interindividual variability” value is reported as 37 (18%). Moreover, the “ωV2, percent interindividual variability” value in [3] is given as 13 (122%). The “decrease of median V1 by LPS in comparison to controls” value in [3] (iv) came out at 70%. For the same molecule, in data set [3] (iv), the “decrease of median V2 by LPS in comparison to controls” value worked out at 43%. Further, the fraction unbound – broadly, the share of the substance not bound to proteins or other matrix – at 4 h amounted to 0.083 in [4] (pH 7.4, LPS mice); 0.13 in data set [4] (pH 7.4, control mice); 0.088 in [6] (pH 7.4, LPS mice); 0.087 in data set [6] (pH 7.4, control mice). Besides, in “in vivo” (C57BL/6N, mouse, in vivo, 4 mg/kg), the “increase of mean plasma AUC24h, LPS mice vs controls” value is reported as 2.6 fold. Further, in “in vivo” (C57BL/6N, mouse, in vivo, po), the “increase of plasma AUC in LPS mice” value amounted to 140%. For the same molecule, the AUC(0-t) (in general, exposure summed from dosing to a finite time, without extrapolation to infinity) turned out to be 562 ng·h/mL in the data set “in vivo” (C57BL/6N, mouse, iv, 0.5 mg/kg, Controls, 0.5 mg/kg IV DMO, t = 6 hours); 28.7 ng·h/mL in the data set “in vivo” (C57BL/6N, mouse, iv, 0.5 mg/kg, Controls, 0.5 mg/kg IV olanzapine, t = 6 hours); 1690 ng·h/mL in the data set “in vivo” (C57BL/6N, mouse, iv, 0.5 mg/kg, LPS mice, 0.5 mg/kg IV DMO, t = 6 hours); 57.6 ng·h/mL in the data set “in vivo” (C57BL/6N, mouse, iv, 0.5 mg/kg, LPS mice, 0.5 mg/kg IV olanzapine, t = 6 hours); 408 ng·h/mL in “in vivo” (C57BL/6N, mouse, po, 4 mg/kg, Controls, 4 mg/kg PO olanzapine, t = 24 hours); 1070 ng·h/mL in “in vivo” (C57BL/6N, mouse, po, 4 mg/kg, LPS mice, 4 mg/kg PO olanzapine, t = 24 hours). For the same molecule, the clearance (usually the rate of elimination divided by the concentration) in data set [5] (C57BL/6N, mouse, plasma) was 10.3 mL/min/kg.
Take `C[S+](C)[O-]` [DMSO, dimethyl sulfoxide]: in the data set with mice, the LD50 (as a rule, the dose expected to kill half of the subjects tested) was 16500 to 24600 mg/kg.
`O=C1CCc2cc(OCCCCc3nnnn3C3CCCCC3)ccc2N1` [cilostazole]: the “increase of AUC for plasma cilostazole by DMSO” value in [7] was 32%.
For the molecule `CN1CCN(C2=Nc3cc(Cl)ccc3Nc3ccccc32)CC1` [clozapine], the fraction unbound at 4 h, 100 ng/mL in data set [6] was in the range of 0.014 to 0.021.
`Cc1cc2c(s1)Nc1ccccc1N=C2N1CCN(C)CC1` [olanzapine]: the “brain AUC higher in LPS mice than controls” value in data set [1] (intravenous olanzapine 0.5 mg/kg) was 1.8 fold. In addition, the “brain AUC higher in LPS mice than controls” value in data set [1] (oral olanzapine 4 mg/kg) was 5.2 fold and 5 fold. Further, in data set [3], the Q was 9.0 (31%) L·hour^−1.kg^-1, the V1 is on record as 4.1 (13%) L.kg^-1, the V2 is on record as 3.5 (18%) L.kg^-1 and the “higher absolute bioavailability in LPS mice” value is on record as 200%. Besides, in [3], the βCL_LPS is -0.43 (42%); the βF_LPS is 1.14 (14%); the “ωCL, percent interindividual variability” value is 24 (37%); the “ωF, percent interindividual variability” value is recorded as 16 (38%). Further, in [3], the “ωQ, percent interindividual variability” value was 73 (49%); the “ωV1, percent interindividual variability” value is on record as 45 (32%); the “ωV2, percent interindividual variability” value is 83 (20%). Moreover, the “increase of mean plasma AUC24h, LPS mice vs controls” value in “in vivo” (4 mg/kg PO olanzapine) came out at 3.8 fold. Besides, the CL/F (in general, clearance divided by bioavailability, as obtained after extravascular dosing) in the data set “in vivo” (mouse, in vivo, po, 4 mg/kg) is 552 mL/min/kg. Further, the Fp.o. olanzapine in data set [5] (population median (%RSE), reference group controls) is 0.075 (12%).
For the molecule `O=c1n(CCCN2CCN(c3cccc(Cl)c3)CC2)nc2ccccn12` [trazodone], in data set [6], the fraction unbound at 4 h, 100 ng/mL was 0.078 to 0.118.
